Reference: PubChem BioAssay AID248 (DTP/NCI, 2004)
Values joined by “and” are separate entries in the source; they are usually repeats but may differ in a detail not shown here. Equal entries are not always repeated. Toxic doses and inconclusive results are not listed.

Tested on: L1210 leukemia ip in BDF1 mice, survival T/C
Test: NCI In Vivo Anticancer Drug Screen. Data for tumor model L1210 Leukemia (intraperitoneal) in B6D2F1 (BDF1) mice
Conditions: endpoint: mean survival time, higher = longer survival
Outline: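 Survival endpoint. Drug-treated group vs vehicle group, expressed as T divided by C. Tumor passaged by transplantation.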

SMILES: CC(=O)NC1=C(N2CC2)C(=O)C(NC(C)=O)=C(N2CC2)C1=O
- T/C (dose: 0.01 mg/kg/injection, schedule: Q01DX Z (ip), vehicle: alkali diluted with saline): 96 % of control
- T/C (dose: 0.03 mg/kg/injection, schedule: Q01DX Z (ip), vehicle: alkali diluted with saline): 96 % of control
- T/C (dose: 0.06 mg/kg/injection, schedule: Q01DX006 (iv), vehicle: saline): 113 % of control
- T/C (dose: 0.06 mg/kg/injection, schedule: Q01DX Z (ip), vehicle: alkali diluted with saline): 97 % of control and 105 % of control
- T/C (dose: 0.06 mg/kg/injection, schedule: Q01DX Z (ip), vehicle: saline): 113 % of control
- T/C (dose: 0.12 mg/kg/injection, schedule: Q01DX Z (ip), vehicle: alkali diluted with saline): 100 % of control and 102 % of control
- T/C (dose: 0.12 mg/kg/injection, schedule: Q01DX Z (oral), vehicle: carboxymethylcellulose (CMC)): 97 % of control
- T/C (dose: 0.13 mg/kg/injection, schedule: Q01DX006 (iv), vehicle: saline): 118 % of control
- T/C (dose: 0.24 mg/kg/injection, schedule: Q01DX Z (ip), vehicle: alkali diluted with saline): 109 % of control
- T/C (dose: 0.25 mg/kg/injection, schedule: Q01DX006 (iv), vehicle: saline): 108 % of control
- T/C (dose: 0.25 mg/kg/injection, schedule: Q01DX Z (im), vehicle: saline): 121 % of control
- T/C (dose: 0.25 mg/kg/injection, schedule: Q01DX Z (ip), vehicle: saline): 159 % of control
- T/C (dose: 0.25 mg/kg/injection, schedule: Q01DX Z (oral), vehicle: carboxymethylcellulose (CMC)): 101 % of control
- T/C (dose: 0.25 mg/kg/injection, schedule: Q01DX Z (sc), vehicle: saline): 102 % of control
- T/C (dose: 0.38 mg/kg/injection, schedule: Q03DX005 (oral), vehicle: saline): 111 % of control
- T/C (dose: 0.38 mg/kg/injection, schedule: Q03DX006 (oral), vehicle: saline): 106 % of control
- T/C (dose: 0.48 mg/kg/injection, schedule: Q01DX Z (ip), vehicle: alkali diluted with saline): 97 % of control
- T/C (dose: 0.5 mg/kg/injection, schedule: Q01DX Z (ip), vehicle: saline): 185 % of control and 201 % of control
- T/C (dose: 0.5 mg/kg/injection, schedule: Q01DX Z (oral), vehicle: carboxymethylcellulose (CMC)): 100 % of control
- T/C (dose: 0.75 mg/kg/injection, schedule: Q03DX005 (oral), vehicle: saline): 111 % of control
- T/C (dose: 0.75 mg/kg/injection, schedule: Q03DX006 (oral), vehicle: saline): 109 % of control
- T/C (dose: 0.9 mg/kg/injection, schedule: Q01DX001 (oral), vehicle: saline): 103 % of control and 104 % of control and 108 % of control
- T/C (dose: 0.9 mg/kg/injection, schedule: Q07DX002 (oral), vehicle: saline): 108 % of control
- T/C (dose: 0.9 mg/kg/injection, schedule: Q07DX003 (oral), vehicle: saline): 101 % of control
- T/C (dose: 0.96 mg/kg/injection, schedule: Q01DX Z (ip), vehicle: alkali diluted with saline): 103 % of control
- T/C (dose: 0.96 mg/kg/injection, schedule: Q01DX Z (ip), vehicle: other): 194 % of control
- T/C (dose: 1.0 mg/kg/injection, schedule: Q01DX006 (iv), vehicle: saline): 170 % of control
- T/C (dose: 1.0 mg/kg/injection, schedule: Q01DX Z (ip), vehicle: carboxymethylcellulose (CMC)): 155 % of control
- T/C (dose: 1.0 mg/kg/injection, schedule: Q01DX Z (ip), vehicle: saline): 164 % of control and 220 % of control
- T/C (dose: 1.0 mg/kg/injection, schedule: Q01DX Z (oral), vehicle: carboxymethylcellulose (CMC)): 109 % of control
- T/C (dose: 1.0 mg/kg/injection, schedule: Q01DX Z (oral), vehicle: saline): 121 % of control
- T/C (dose: 1.0 mg/kg/injection, schedule: Q01DX Z (sc), vehicle: saline): 161 % of control
- T/C (dose: 1.0 mg/kg/injection, schedule: Q#A X Z (oral), vehicle: saline): 115 % of control
- T/C (dose: 1.25 mg/kg/injection, schedule: Q01DX Z (ip), vehicle: carboxymethylcellulose (CMC)): 164 % of control
- T/C (dose: 1.5 mg/kg/injection, schedule: Q01DX Z (ip), vehicle: saline): 163 % of control
- T/C (dose: 1.5 mg/kg/injection, schedule: Q03DX005 (oral), vehicle: saline): 108 % of control
- T/C (dose: 1.5 mg/kg/injection, schedule: Q03DX006 (oral), vehicle: saline): 124 % of control and 91 % of control
- T/C (dose: 1.75 mg/kg/injection, schedule: Q01DX001 (oral), vehicle: saline): 104 % of control and 111 % of control and 117 % of control
- T/C (dose: 1.75 mg/kg/injection, schedule: Q07DX002 (oral), vehicle: saline): 108 % of control
- T/C (dose: 1.75 mg/kg/injection, schedule: Q07DX003 (oral), vehicle: saline): 117 % of control
- T/C (dose: 1.9 mg/kg/injection, schedule: Q01DX Z (ip), vehicle: alkali diluted with saline): 101 % of control
- T/C (dose: 1.9 mg/kg/injection, schedule: Q01DX Z (ip), vehicle: other): 122 % of control
- T/C (dose: 2.0 mg/kg/injection, schedule: Q01DX006 (iv), vehicle: saline): 168 % of control and 174 % of control
- T/C (dose: 2.0 mg/kg/injection, schedule: Q01DX Z (im), vehicle: saline): 113 % of control
- T/C (dose: 2.0 mg/kg/injection, schedule: Q01DX Z (ip), vehicle: saline): 116 % of control and 117 % of control
- T/C (dose: 2.0 mg/kg/injection, schedule: Q01DX Z (oral), vehicle: saline): 118 % of control
- T/C (dose: 2.2 mg/kg/injection, schedule: Q01DX Z (ip), vehicle: carboxymethylcellulose (CMC)): 103 % of control and 114 % of control
- T/C (dose: 2.5 mg/kg/injection, schedule: Q01DX Z (ip), vehicle: carboxymethylcellulose (CMC)): 117 % of control
- T/C (dose: 3.0 mg/kg/injection, schedule: Q01DX Z (ip), vehicle: saline): 106 % of control
- T/C (dose: 3.0 mg/kg/injection, schedule: Q03DX006 (oral), vehicle: saline): 94 % of control and 114 % of control
- T/C (dose: 3.3 mg/kg/injection, schedule: Q01DX Z (ip), vehicle: carboxymethylcellulose (CMC)): 101 % of control and 90 % of control
- T/C (dose: 3.5 mg/kg/injection, schedule: Q01DX001 (oral), vehicle: saline): 101 % of control and 105 % of control and 106 % of control
- T/C (dose: 3.5 mg/kg/injection, schedule: Q07DX002 (oral), vehicle: saline): 97 % of control
- T/C (dose: 3.5 mg/kg/injection, schedule: Q07DX003 (oral), vehicle: saline): 109 % of control
- T/C (dose: 4.0 mg/kg/injection, schedule: Q01DX006 (iv), vehicle: saline): 88 % of control
- T/C (dose: 4.0 mg/kg/injection, schedule: Q01DX Z (sc), vehicle: saline): 96 % of control
- T/C (dose: 4.9 mg/kg/injection, schedule: Q01DX Z (ip), vehicle: carboxymethylcellulose (CMC)): 90 % of control
- T/C (dose: 6.0 mg/kg/injection, schedule: Q03DX005 (oral), vehicle: saline): 103 % of control
- T/C (dose: 6.0 mg/kg/injection, schedule: Q03DX006 (oral), vehicle: saline): 124 % of control
- T/C (dose: 7.0 mg/kg/injection, schedule: Q01DX001 (oral), vehicle: saline): 106 % of control and 120 % of control
- T/C (dose: 7.0 mg/kg/injection, schedule: Q07DX003 (oral), vehicle: saline): 117 % of control
- T/C (dose: 8.0 mg/kg/injection, schedule: Q01DX Z (oral), vehicle: saline): 156 % of control and 175 % of control
- T/C (dose: 8.0 mg/kg/injection, schedule: Q#A X Z (oral), vehicle: saline): 152 % of control
- T/C (dose: 16.0 mg/kg/injection, schedule: Q01DX Z (oral), vehicle: saline): 122 % of control
- T/C (dose: 28.0 mg/kg/injection, schedule: Q07DX003 (oral), vehicle: saline): 153 % of control
- T/C (dose: 32.0 mg/kg/injection, schedule: Q01DX Z (oral), vehicle: saline): 95 % of control
- T/C (dose: 112.0 mg/kg/injection, schedule: Q07DX003 (oral), vehicle: saline): 111 % of control
- T/C (dose: 224.0 mg/kg/injection, schedule: Q01DX001 (oral), vehicle: saline): 120 % of control
- T/C (dose: 448.0 mg/kg/injection, schedule: Q01DX001 (oral), vehicle: saline): 108 % of control
- T/C (dose: 600.0 mg/kg/injection, schedule: Q01DX001 (oral), vehicle: saline): 107 % of control
- T/C (dose: 800.0 mg/kg/injection, schedule: Q01DX001 (oral), vehicle: saline): 113 % of control
- T/C (dose: 1000.0 mg/kg/injection, schedule: Q01DX001 (oral), vehicle: saline): 110 % of control

SMILES: C[N+](C)(C)Cc1c[nH]c2ccsc12
- T/C (dose: 12.5 mg/kg/injection, schedule: Q01DX001 (ip), vehicle: saline with Tween-80): 107 % of control

SMILES: O=C(O)/C=C/C(=O)OCCBr
- T/C (dose: 25.0 mg/kg/injection, schedule: Q04DX003 (ip), vehicle: saline): 92 % of control
- T/C (dose: 50.0 mg/kg/injection, schedule: Q01DX009 (ip), vehicle: saline with Tween-80): 100 % of control
- T/C (dose: 50.0 mg/kg/injection, schedule: Q04DX003 (ip), vehicle: saline): 95 % of control
- T/C (dose: 100.0 mg/kg/injection, schedule: Q01DX009 (ip), vehicle: saline with Tween-80): 115 % of control
- T/C (dose: 100.0 mg/kg/injection, schedule: Q04DX003 (ip), vehicle: saline): 90 % of control
- T/C (dose: 200.0 mg/kg/injection, schedule: Q01DX009 (ip), vehicle: saline with Tween-80): 97 % of control

SMILES: O=C(O)c1ccccc1C(=O)Nc1ccccc1[N+](=O)[O-]
- T/C (dose: 100.0 mg/kg/injection, schedule: Q01DX001 (ip), vehicle: saline with Tween-80): 91 % of control
- T/C (dose: 200.0 mg/kg/injection, schedule: Q01DX001 (ip), vehicle: saline with Tween-80): 91 % of control
- T/C (dose: 400.0 mg/kg/injection, schedule: Q01DX001 (ip), vehicle: saline with Tween-80): 91 % of control
